Values quoted from earlier work as cited in patent publication US5962457A, “2,3 Disubstituted- (5,6)-heteroarylfused-pyrimidine-4-ones” (Pfizer Inc., priority 1997, dated 1999).

Key:
[1] = focal and global ischemia models; Sheardown et al., Buchan et al., LePeillet et al.
[2] = rat global ischemia models; LaPeillet et al.

Structure (SMILES) | prevention of global and focal ischemic damage [1] | neuroprotection in global ischemia [2]
NS(=O)(=O)c1cccc2c1c([N+](=O)[O-])cc1[nH]c(=O)c(=O)[nH]c12 [NBQX, 2,3-dihydroxy-6-nitro-7-sulfamoylbenzo[f-]quinoxaline] | effective in preventing global and focal ischemic damage | 
CC1=NN=C(c2ccc(N)cc2)c2cc3c(cc2C1)OCO3 [GKYI 52466] |  | effective neuroprotective agent
